{
  "source": "patent US20180000085A1",
  "about": "“USE OF PICOLINAMIDE COMPOUNDS WITH FUNGICIDAL ACTIVITY” (DOW AGROSCIENCES LLC, priority 2014, published 2018)",
  "assay_type_in_all_cases": "in vivo",
  "key": {"Puccinia triticina": {"test_system": "Puccinia triticina", "assay": "Wheat brown rust (PUCCRT) disease control on wheat seedlings", "conditions": "low volume application, 125.1 g/H; for PUCCRT 1DP disease control rating, LV activity at 125.1 g/H: 1 day protectant; for PUCCRT 3DC disease control rating, LV activity at 125.1 g/H: 3 day curative"}, "Zymoseptoria tritici": {"test_system": "Zymoseptoria tritici", "assay": "Leaf blotch of wheat (SEPTTR) disease control on wheat seedlings", "conditions": "low volume application, 125.1 g/H; for SEPTTR 1DP disease control rating, LV activity at 125.1 g/H: 1 day protectant; for SEPTTR 3DC disease control rating, LV activity at 125.1 g/H: 3 day curative"}, "Phakopsora pachyrhizi": {"test_system": "Phakopsora pachyrhizi", "assay": "Asian soybean rust (PHAKPA) disease control", "parameters": "key: A: > 80; B: ≤ 80; C: Not Tested; D: No Activity Observed in the Reported Assay", "conditions": "25 ppm; for PHAKPA disease control, 1DP: 1 Day Protectant; for PHAKPA disease control, 3DC: 3 Day Curative"}},
  "data": [
    {"compound": "COc1ccnc(C(=O)N[C@@H](C)C(=O)O[C@@H](C)[C@H](Oc2cccc(Cl)c2)C2CCCC2)c1OC(C)=O", "note": "[Cmpd 920, (S)-(1R,2S)-1-(3-chlorophenoxy)-1-cyclopentylpropan-2-yl-2-(3-acetoxy-4-methoxypicolinamido)propanoate]", "values": [
      {"measurement": "PUCCRT 1DP disease control rating, LV activity at 125.1 g/H", "setting": "Puccinia triticina", "value": "A (> 80)"},
      {"measurement": "PUCCRT 3DC disease control rating, LV activity at 125.1 g/H", "setting": "Puccinia triticina", "value": "A (> 80)"},
      {"measurement": "SEPTTR 1DP disease control rating, LV activity at 125.1 g/H", "setting": "Zymoseptoria tritici", "value": "A (> 80)"},
      {"measurement": "SEPTTR 3DC disease control rating, LV activity at 125.1 g/H", "setting": "Zymoseptoria tritici", "value": "A (> 80)"},
      {"measurement": "PHAKPA disease control, 1DP", "setting": "Phakopsora pachyrhizi", "value": "B (≤ 80)"},
      {"measurement": "PHAKPA disease control, 3DC", "setting": "Phakopsora pachyrhizi", "value": "B (≤ 80)"}
    ]},
    {"compound": "COc1ccnc(C(=O)N[C@@H](C)C(=O)O[C@@H](C)[C@H](Oc2ccc(C)cc2)C2CCCC2)c1OC(C)=O", "note": "[Cmpd 923]", "values": [
      {"measurement": "PUCCRT 1DP disease control rating, LV activity at 125.1 g/H", "setting": "Puccinia triticina", "value": "A (> 80)"},
      {"measurement": "PUCCRT 3DC disease control rating, LV activity at 125.1 g/H", "setting": "Puccinia triticina", "value": "A (> 80)"},
      {"measurement": "SEPTTR 1DP disease control rating, LV activity at 125.1 g/H", "setting": "Zymoseptoria tritici", "value": "B (≤ 80)"},
      {"measurement": "SEPTTR 3DC disease control rating, LV activity at 125.1 g/H", "setting": "Zymoseptoria tritici", "value": "B (≤ 80)"},
      {"measurement": "PHAKPA disease control, 1DP", "setting": "Phakopsora pachyrhizi", "value": "A (> 80)"},
      {"measurement": "PHAKPA disease control, 3DC", "setting": "Phakopsora pachyrhizi", "value": "B (≤ 80)"}
    ]},
    {"compound": "COc1ccnc(C(=O)N[C@@H](C)C(=O)O[C@@H](C)[C@H](Oc2ccccc2)c2ccc(F)cc2)c1OCOC(C)=O", "note": "[Cmpd 924]", "values": [
      {"measurement": "PUCCRT 1DP disease control rating, LV activity at 125.1 g/H", "setting": "Puccinia triticina", "value": "A (> 80)"},
      {"measurement": "PUCCRT 3DC disease control rating, LV activity at 125.1 g/H", "setting": "Puccinia triticina", "value": "A (> 80)"},
      {"measurement": "SEPTTR 1DP disease control rating, LV activity at 125.1 g/H", "setting": "Zymoseptoria tritici", "value": "A (> 80)"},
      {"measurement": "SEPTTR 3DC disease control rating, LV activity at 125.1 g/H", "setting": "Zymoseptoria tritici", "value": "A (> 80)"},
      {"measurement": "PHAKPA disease control, 1DP", "setting": "Phakopsora pachyrhizi", "value": "A (> 80)"},
      {"measurement": "PHAKPA disease control, 3DC", "setting": "Phakopsora pachyrhizi", "value": "D"}
    ]},
    {"compound": "COc1ccnc(C(=O)N[C@@H](C)C(=O)O[C@@H](C)[C@H](Oc2ccccc2)c2ccc(F)cc2)c1OC(C)=O", "note": "[Cmpd 925]", "values": [
      {"measurement": "PUCCRT 1DP disease control rating, LV activity at 125.1 g/H", "setting": "Puccinia triticina", "value": "A (> 80)"},
      {"measurement": "PUCCRT 3DC disease control rating, LV activity at 125.1 g/H", "setting": "Puccinia triticina", "value": "A (> 80)"},
      {"measurement": "SEPTTR 1DP disease control rating, LV activity at 125.1 g/H", "setting": "Zymoseptoria tritici", "value": "A (> 80)"},
      {"measurement": "SEPTTR 3DC disease control rating, LV activity at 125.1 g/H", "setting": "Zymoseptoria tritici", "value": "A (> 80)"},
      {"measurement": "PHAKPA disease control, 1DP", "setting": "Phakopsora pachyrhizi", "value": "A (> 80)"},
      {"measurement": "PHAKPA disease control, 3DC", "setting": "Phakopsora pachyrhizi", "value": "B (≤ 80)"}
    ]}
  ]
}
